In patent publication US20040063703A1, “Synergistic pesticide mixtures for the control of animal pests” (priority 2001, published 2004):

How the values were obtained:
[1] = tested on: larvae of the mustard beetle (Phaedon cochleariae); experiment: Phaedon larvae test (kill rate, Colby); format: in vivo; conditions: cabbage leaf dip
Procedure: (§1) The kill rates determined are calculated using Colby's formula (see sheet 1).

[2] = tested on: normally sensitive caterpillars of the diamondback moth (Plutella xylostella); experiment: Plutella test (normally sensitive) (kill rate, Colby); format: in vivo; conditions: normally sensitive strain
Procedure: Plutella Test (Normally Sensitive)
as §1

[3] = tested on: resistant caterpillars of the diamondback moth (Plutella xylostella); experiment: Plutella test (resistant) (kill rate, Colby); format: in vivo; conditions: resistant strain
Procedure: Plutella Test (Resistant)
as §1

[4] = tested on: caterpillars of the armyworm (Spodoptera frugiperda); experiment: Spodoptera frugiperda test (kill rate, Colby); format: in vivo; conditions: cabbage leaf dip
Procedure: (§2) Spodoptera frugiperda Test
as §1

[5] = tested on: Heliothis virescens caterpillars; experiment: Heliothis virescens test (kill rate, Colby); format: in vivo; conditions: soya bean shoot dip
Procedure: as §1

[6] = tested on: caterpillars of the diamondback moth (Plutella xylostella, sensitive strain); experiment: Plutella test, sensitive strain (LC95, Carpenter); format: in vivo; conditions: found
From the text: Plutella Test, Sensitive Strain

[7] = tested on: caterpillars of the diamondback moth (Plutella xylostella, resistant strain); experiment: Plutella test, resistant strain (LC95, Carpenter); format: in vivo; conditions: found
From the text: Plutella Test, Resistant Strain

[8] = tested on: caterpillars of the armyworm (Spodoptera frugiperda); experiment: Spodoptera frugiperda test (LC50, Carpenter); format: in vivo; conditions: found, cabbage leaf dip
From the text: as §2

[9] = tested on: larvae of the mustard beetle (Phaedon cochleariae); experiment: Phaedon larvae test (LC50, Carpenter); conditions: found, cabbage leaf dip

COC(=O)N(C(=O)N1CO[C@@]2(C(=O)OC)Cc3cc(Cl)ccc3C2=N1)c1ccc(OC(F)(F)F)cc1 [indoxacarb]
Kill rate in % after 3 days ([1]; 0.5 ppm): 20% | Kill rate in % after 6 days ([1]; 0.5 ppm): 45% | Kill rate in % after 6 days ([2]; 0.1 ppm): 65% | Kill rate in % after 6 days ([3]; 0.1 ppm): 55% | Kill rate in % after 6 days ([4]; 0.02 ppm): 0% | Kill rate in % after 3 days ([5]; 0.1 ppm): 0% | LC95 after 6 days [6]: 0.531 ppm | LC95 after 6 days [7]: 0.234 ppm | LC50 after 6 days [8]: 0.136 ppm | LC50 after 6 days [9]: 0.1 ppm

N#C/N=C1\SCCN1Cc1ccc(Cl)nc1 [thiacloprid, (Z)-3-(6-chloro-3-pyridylmethyl)-1,3-thiazolidin-2-ylidenecyanamide]
Kill rate in % after 6 days ([1]; 3 ppm): 0% | Kill rate in % after 6 days ([2]; 3 ppm): 0% | Kill rate in % after 6 days ([3]; 3 ppm): 0%

CN/C(=N\[N+](=O)[O-])NCc1cnc(Cl)s1 [clothianidin (X), (E)-1-(2-chloro-1,3-thiazol-5-yl-methyl)-3-methyl-2-nitroguanidine]
LC95 after 6 days [6]: 26.037 ppm | LC95 after 6 days [7]: 50.722 ppm | LC50 after 6 days [8]: 0.662 ppm | LC50 after 6 days [9]: 2.372 ppm

O=[N+]([O-])/N=C1\NCCN1Cc1ccc(Cl)nc1 [imidacloprid, 1-[(6-chloro-3-pyridinyl)methyl]-N-nitro-2-imidazolidineimine]
Kill rate in % after 3 days ([1]; 3 ppm): 0% | Kill rate in % after 6 days ([4]; 0.6 ppm): 0% | Kill rate in % after 3 days ([5]; 3 ppm): 15%
